Data taken from US11198741B2, “Medicines for topic use based on sulfated hyaluronic acid as activating or inhibiting agent of the cytokine activity” (Fidia Farmaceutici S.p.A., priority 2009, dated 2021).
Where two headings read alike, the source gives them in different places.

Experiments:
[1] = tested on: Vesicular stomatitis virus: VSV; format: cell-based
IL-10 = assay: Gene expression of IL-10 in human synoviocytes (PCR Real Time); format: cell-based; details: 3 days of treatment, FIG. 1: HAS1 0.5 mg/ml, HAS3 0.1 mg/ml, vs control treated with non-sulfated HA 200 KD
Experimental: (§1) Human synoviocytes previously expanded in vitro and maintained in a culture at 37° C. with a medium of DMEM containing 10% of FCS, were seeded at a concentration of 20,000 cells per well (synoviocytes are cells capable of producing various types of cytokines, and are therefore normally used for this type of experimental test). […] After 3 days of treatment, the PCR Real Time was effected to evaluate the gene expression of IL-10 and IL-12: the cell RNA was extracted using the “Trizol” method, following the indications of the supplier (TRIZOL reagent, LIFE Technologies, GIBCO BRL). In short, the cells were lysed by the addition of 1.0 ml of Trizol and the total RNA was quantified by measuring its absorbance at 260 nm. The appropriate primers were selected for each gene to be amplified, using the software Primer3 (Roche Molecular Diagnostics, Pleasanton, Calif., USA). The gene expression was evaluated by means of PCR Real Time effected with a Rotor-gene TM5500 (Corbett research, Sydney, Australia). The PCR reactions were effected using primers at […] and SYBR Green (Invitroge, Carlsbad, Calif., USA) at 40 cycles of 15 s at 95° C., and 1 min. at 60° C. The value of “Fluorescence thresholds (Ct)” was automatically determined by the software, evaluating an amplification coefficient for the genes studied between 92 and 110%. […]

IL-12 [2] = assay: Gene expression of IL-12 in human synoviocytes (PCR Real Time); format: cell-based; details: 3 days of treatment, FIG. 2: 0.5 mg/ml, vs control treated with non-sulfated HA 200 KD
Experimental: as §1

TNF receptor = assay: Inhibition of the binding of 125I-TNF to its receptor in U937 cells (Radioligand Binding); parameters: species or system human; details: 125I-TNF 0.028 nM, sample 1 mg/ml, 4° C. 3 hours, medium and low MW
Source text: These experiments were effected to evaluate the effectiveness of the samples tested (prepared according to Examples 1-4) on the capacity of inhibiting the binding of TNF to its receptor expressed by cells of the I.S. normally used in vitro for this type of experiment, carried out with iodinated cytokine components for an evaluation in Radioligand Binding assays. The experimental procedure was effected as described in Baglioni C. et al., J Biol Chem, 1985, 260:13395-13397. In short, the line of human histiocytes of the lymphoma U937 was used, with characteristics of monocytes sensitive to the cytotoxic activity of TNF, expressing its relative receptor. […] At the end of the incubation, the cells were centrifuged with dibutylphthalate/dinonylphthalate 2/1 and the pellet obtained was counted in a γ-counter.

[3] = tested on: Herpes Simplex Virus-1 (HSV-1: KOS, F and McIntyre strain); assay: Inhibition of viral cytopathogenicity in E6SM fibroblast cells, HSV-1; format: cell-based; details: 2nd day of incubation, numbers only in FIG. 10
[4] = tested on: Herpes Simplex Virus-2 (HSV-2: G, 196 and Lyons strain); assay: Inhibition of viral cytopathogenicity in E6SM fibroblast cells, HSV-2; format: cell-based; details: 2nd day of incubation, numbers only in FIG. 10
[5] = tested on: Cytomegalovirus (CMV: AD-169 and Davis strain); assay: Inhibition of Cytomegalovirus plaque formation in HEL cells; format: cell-based; details: numbers only in FIG. 11
Experimental: The activity of the samples tested was determined by evaluating the inhibition of the cytopathogenicity determined by Cytomegalovirus (CMV: AD-169 and Davis strain) using the previous protocol. The antiviral activity was tested vs HEL cells (pulmonary embryonic cells) and was expressed as the concentration required for inhibiting the number of plaques formed by the above virus by 50%.

IL-2 = assay: Protein synthesis of IL-2 in human PBMC (SearchLight array); details: not stimulated or stimulated with LPS or PHA (10 μg/ml), 24 hours, FIG. 6: HAS1 0.1 mg/ml, HAS3 1 mg/ml, vs HA
Experimental: (§2) For these experimentations, mononucleate cells of human peripheral blood (PBMC) were adopted, deriving from various donors for evaluating the effect of HAS on the production of the cytokines listed above, using:
(§3) The separation of the PBMC (Bøyum A., Scand J Clin Lab Invest 21 Suppl, 1968, 97:77-89) was effected using the product Ficoll-Paque PLUS (GE Healthcare) and following the protocol indicated by the supplier. At day zero 100,000 cells were plated per well (using plates with 96 wells) in 200 μl of medium RPMI 1640, to which 10% of fetal bovine serum, HEPES 10 mM, Glutamine 2 mM, 1% Penicillin-Streptomycin 100 U/ml, had been added. […] The cells were treated separately with the three compounds at a concentration of 0.1 mg/ml or 1 mg/ml. After 24 hours of incubation at 37° C. (5% CO2), 100 μl of supernatant were taken from each well in order to analyze the production of IL-2, IL-7, IL-10 and IL-12.
(§4) The quantification of the inflammation mediators was effected by means of the SearchLight® technology, using a Custom Human 9-flex Array plate following the protocol indicated by the supplier in the technical card.

IL-7 = assay: Protein synthesis of IL-7 in human PBMC (SearchLight array); details: not stimulated or stimulated with LPS or PHA (10 μg/ml), 24 hours, FIG. 7: 1 mg/ml, vs HA
Experimental: as §2, §3, §4

IL-12 [6] = assay: Protein synthesis of IL-12 in human PBMC (SearchLight array); details: not stimulated or stimulated with LPS or PHA (10 μg/ml), 24 hours, FIG. 8: 1 mg/ml, vs HA
Experimental: as §2, §3, §4

fibrin clot = target: T1, fibrin clot (Homo sapiens, UniProt P02671+P02675+P02679); assay: In vitro fibrinolytic activity: dissolution of fibrin clot in coagulated plasma (absorbance at 405 nm); format: biochemical; details: 37° C.
T1 sequence (P02671 20-644 isoform P02671-2 limits assumed): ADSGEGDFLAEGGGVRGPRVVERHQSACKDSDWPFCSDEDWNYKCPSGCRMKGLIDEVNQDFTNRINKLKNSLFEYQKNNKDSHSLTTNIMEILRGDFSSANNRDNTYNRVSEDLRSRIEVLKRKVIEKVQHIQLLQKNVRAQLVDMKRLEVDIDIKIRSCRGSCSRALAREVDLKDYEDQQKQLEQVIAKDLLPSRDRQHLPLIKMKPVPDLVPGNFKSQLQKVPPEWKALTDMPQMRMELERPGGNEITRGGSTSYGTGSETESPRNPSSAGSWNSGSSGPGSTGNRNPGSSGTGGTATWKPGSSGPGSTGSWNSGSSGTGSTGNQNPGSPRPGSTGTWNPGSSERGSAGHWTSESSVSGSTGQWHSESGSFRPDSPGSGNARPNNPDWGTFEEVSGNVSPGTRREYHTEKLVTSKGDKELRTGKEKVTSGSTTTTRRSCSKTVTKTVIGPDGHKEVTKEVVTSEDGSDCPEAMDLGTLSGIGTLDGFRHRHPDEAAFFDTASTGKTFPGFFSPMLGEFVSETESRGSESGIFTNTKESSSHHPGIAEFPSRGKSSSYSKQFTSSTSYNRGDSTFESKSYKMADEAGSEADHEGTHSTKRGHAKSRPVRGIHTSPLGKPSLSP
T1 sequence (P02675 45-491 limits assumed): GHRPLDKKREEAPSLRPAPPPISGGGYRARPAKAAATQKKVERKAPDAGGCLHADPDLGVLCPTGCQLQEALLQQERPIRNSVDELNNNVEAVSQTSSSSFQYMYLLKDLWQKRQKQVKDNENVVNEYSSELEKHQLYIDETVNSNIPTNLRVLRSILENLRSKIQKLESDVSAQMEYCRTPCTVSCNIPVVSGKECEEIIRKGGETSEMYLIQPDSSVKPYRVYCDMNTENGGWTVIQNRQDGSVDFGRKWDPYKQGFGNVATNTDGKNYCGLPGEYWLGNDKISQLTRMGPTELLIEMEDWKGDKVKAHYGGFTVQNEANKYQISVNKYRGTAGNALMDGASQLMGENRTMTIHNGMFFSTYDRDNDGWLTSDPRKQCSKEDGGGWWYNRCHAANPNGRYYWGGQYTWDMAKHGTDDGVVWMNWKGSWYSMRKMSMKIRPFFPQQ
T1 sequence (P02679 27-437 isoform P02679-2 limits assumed): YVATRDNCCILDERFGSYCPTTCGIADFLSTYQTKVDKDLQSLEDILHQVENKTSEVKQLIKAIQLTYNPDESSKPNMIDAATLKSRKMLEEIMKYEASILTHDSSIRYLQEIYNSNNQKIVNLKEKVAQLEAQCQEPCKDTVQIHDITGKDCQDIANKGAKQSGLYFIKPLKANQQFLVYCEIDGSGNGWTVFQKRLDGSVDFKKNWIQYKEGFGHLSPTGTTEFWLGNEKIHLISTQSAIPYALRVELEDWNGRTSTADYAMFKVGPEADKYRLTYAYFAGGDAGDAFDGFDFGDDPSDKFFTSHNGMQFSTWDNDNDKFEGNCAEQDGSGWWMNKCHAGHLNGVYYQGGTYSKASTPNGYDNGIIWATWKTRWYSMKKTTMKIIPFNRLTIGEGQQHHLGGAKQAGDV
Experimental: The evaluation of the fibrinolytic properties of the products subjected to the test was compared with the acknowledged fibrinolytic activity of the plasmin. In particular, the dissolution rate of the fibrin network and formation of soluble products of the fibrin degradation (FDP), was evaluated.
In order to test the fibrinolytic effectiveness of the products subjected to testing, the blood samples were distributed in various test-tubes in which the clot formation was induced.
The formation of FDP was then evaluated after the addition of:
The freshly removed blood samples were distributed in various test-tubes containing sodium citrate in a ratio of 9:1. The test-tubes were immediately centrifuged at 3,000 rpm for 5 minutes. The plasma obtained was transferred to a new test-tube and immediately used for effecting the FDP evaluation.
Thrombin (300 mU/ml), preheated to 37° C. was added to the plasma samples, as activator of the fibrinogen in inducing the formation of the clot.
The following were added to the different cuvettes containing the fibrin clot:
a plasmin solution 0.5 mU, 5 mU, 50 mU, 500 mU and 1 U
solutions of HAS3 at concentrations of 25 mg/ml, 50 mg/ml, 100 mg/ml, 150 mg/ml and 200 mg/ml.
The absorbance variation at 405 nm for 60 sec. was evaluated spectrophotometrically for each cuvette. The reaction was left to proceed until the complete dissolution of the clot.
Coagulated plasma, plasmin solution and a solution of HAS3 200 KD and HAS3 20 KD were mixed in a ratio of 1:1 v/v and maintained at an operating temperature of 37° C.

Nc1nc2c(ncn2COCCO)c(=O)[nH]1 [acyclovir, Acyclovir, reference compound]
antiviral activity (inhibition of the cytopathogenicity of the virus) vs VSV ([1]; E6SM cells, 2nd day of incubation, numbers only in FIG. 10): inactive

sulfated hyaluronic acid degree 1 [HAS1]
gene expression of the cytokine IL-10 (IL-10): significant increase
gene expression of IL-12 (synthesis of its mRNA) (IL-12 [2]): halving the synthesis of its mRNA
inhibition of the binding of TNF to its receptor (TNF receptor): 100%
antiviral activity (inhibition of the cytopathogenicity of the virus) vs HSV-1 [3]: powerful antiviral action
antiviral activity (inhibition of the cytopathogenicity of the virus) vs HSV-2 [4]: powerful antiviral action
antiviral activity (inhibition of the cytopathogenicity of the virus) vs VSV [1]: very powerful antiviral activity
antiviral activity vs Cytomegalovirus (inhibition of the number of plaques) [5]: clear and significant positive result
synthesis of IL-2 (IL-2): significantly reducing
synthesis of IL-7 (IL-7): significantly reducing
synthesis of IL-12 (IL-12 [6]): significantly reducing

B1: PLASMIN: enzyme of the group of hydrolases degrading fibrin; control treatment of acknowledged fibrinolytic activity (protein, UniProt P00747 20-580; P00747 581-810, looked up)
Plasmin heavy chain A: EPLDDYVNTQGASLFSVTKKQLGAGSIEECAAKCEEDEEFTCRAFQYHSKEQQCVIMAENRKSSIIIRMRDVVLFEKKVYLSECKTGNGKNYRGTMSKTKNGITCQKWSSTSPHRPRFSPATHPSEGLEENYCRNPDNDPQGPWCYTTDPEKRYDYCDILECEEECMHCSGENYDGKISKTMSGLECQAWDSQSPHAHGYIPSKFPNKNLKKNYCRNPDRELRPWCFTTDPNKRWELCDIPRCTTPPPSSGPTYQCLKGTGENYRGNVAVTVSGHTCQHWSAQTPHTHNRTPENFPCKNLDENYCRNPDGKRAPWCHTTNSQVRWEYCKIPSCDSSPVSTEQLAPTAPPELTPVVQDCYHGDGQSYRGTSSTTTTGKKCQSWSSMTPHRHQKTPENYPNAGLTMNYCRNPDADKGPWCFTTDPSVRWEYCNLKKCSGTEASVVAPPPVVLLPDVETPSEEDCMFGNGKGYRGKRATTVTGTPCQDWAAQEPHRHSIFTPETNPRAGLEKNYCRNPDGDVGGPWCYTTNPRKLYDYCDVPQCAAPSFDCGKPQVEPKKCPGR
Plasmin light chain B: VVGGCVAHPHSWPWQVSLRTRFGMHFCGGTLISPEWVLTAAHCLEKSPRPSSYKVILGAHQEVNLEPHVQEIEVSRLFLEPTRKDIALLKLSSPAVITDKVIPACLPSPNYVVADRTECFITGWGETQGTFGAGLLKEAQLPVIENKVCNRYEFLNGRVQSTELCAGHLAGGTDSCQGDSGGPLVCFEKDKYILQGVTSWGLGCARPNKPGVYVRVSRFVTWIEGVMRNN
modifications: Plasmin
fibrinolytic activity (mAbs/min) (fibrin clot; plasmin 0.5 mU): 1 mAbs/min
fibrinolytic activity (mAbs/min) (fibrin clot; plasmin 1 U): 190 mAbs/min
fibrinolytic activity (mAbs/min) (fibrin clot; plasmin 5 mU): 68 mAbs/min
fibrinolytic activity (mAbs/min) (fibrin clot; plasmin 50 mU): 126 mAbs/min
fibrinolytic activity (mAbs/min) (fibrin clot; plasmin 500 mU): 178 mAbs/min
